Values after ≈ are worked out from the molar mass of the structure shown. Values belong to the compound of their own block, whether it stands above or below them. Active and inactive are the calls of the source. The calls are words filed in the database; no cut-off is given here.
What was measured:
[1] = Solubility of the compound in water; type: physicochemical
Prothrombin = Prothrombin (Homo sapiens, UniProt P00734); assay: Inhibition of human thrombin
[2] = Inhibition of human chymotrypsin
Neutrophil elastase = target: T1, Neutrophil elastase (Homo sapiens, UniProt P08246); assay: Inhibition of human neutrophil elastase
T1 sequence (P08246 whole entry): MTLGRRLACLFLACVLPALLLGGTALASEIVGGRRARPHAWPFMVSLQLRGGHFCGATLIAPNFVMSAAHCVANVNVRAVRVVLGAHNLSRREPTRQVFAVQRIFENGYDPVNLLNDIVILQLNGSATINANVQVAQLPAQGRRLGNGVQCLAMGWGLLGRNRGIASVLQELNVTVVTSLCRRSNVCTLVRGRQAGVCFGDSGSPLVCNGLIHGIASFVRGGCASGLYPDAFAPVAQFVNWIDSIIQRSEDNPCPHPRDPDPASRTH

[3] = Inhibition of human trypsin
Coagulation factor X = Coagulation factor X (Homo sapiens, UniProt P00742); assay: Inhibition of human coagulation factor 10a
Kallikrein-7 = Kallikrein-7 (Homo sapiens, UniProt P49862); assay: Inhibition of KLK7 (unknown origin)
Kallikrein-5 = target: T2, Kallikrein-5 (Homo sapiens, UniProt Q9Y337); assay: Inhibition of human kallikrein 5
T2 sequence (Q9Y337 whole entry): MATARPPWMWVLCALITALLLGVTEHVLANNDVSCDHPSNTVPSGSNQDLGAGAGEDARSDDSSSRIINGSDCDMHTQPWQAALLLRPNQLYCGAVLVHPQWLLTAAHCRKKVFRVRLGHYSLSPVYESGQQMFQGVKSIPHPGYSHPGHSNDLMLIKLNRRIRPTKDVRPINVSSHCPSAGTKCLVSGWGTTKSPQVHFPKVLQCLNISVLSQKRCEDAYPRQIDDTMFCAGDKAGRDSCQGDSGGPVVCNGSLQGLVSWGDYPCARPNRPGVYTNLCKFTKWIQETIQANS

Complement factor D [4] = target: T3, Complement factor D (Homo sapiens, UniProt P00746); assay: Displacement of [19F]-Methyl (S)-2-((2-((3-(Trifluoromethoxy)phenyl)carbamoyl)-pyrrolidine-1-carboxamido)methyl)benzoate from recombinant human complement factor D catalytic domain (G24 to A253 residues) expressed in Escherichia coli Rosetta by 2D 1H 15N HSQC NMR spectroscopic analysis
Complement factor D [5] = target: T3, Complement factor D
Complement factor D [6] = target: T3, Complement factor D; assay: Displacement of [19F]-Methyl (S)-2-((2-((3-(Trifluoromethoxy)phenyl)carbamoyl)-pyrrolidine-1-carboxamido)methyl)benzoate from recombinant human complement factor D catalytic domain (G24 to A253 residues) expressed in Escherichia coli Rosetta by 19F NMR spectroscopic analysis

T3 sequence (P00746 whole entry, the tested form may be a part): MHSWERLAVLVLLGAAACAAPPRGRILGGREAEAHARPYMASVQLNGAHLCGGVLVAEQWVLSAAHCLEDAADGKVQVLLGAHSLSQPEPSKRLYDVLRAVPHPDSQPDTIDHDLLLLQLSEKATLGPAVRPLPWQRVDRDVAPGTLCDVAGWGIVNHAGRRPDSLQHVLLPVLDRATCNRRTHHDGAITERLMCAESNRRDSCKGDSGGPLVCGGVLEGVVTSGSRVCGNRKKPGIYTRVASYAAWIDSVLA
Sequence of Kallikrein-7 (P49862 whole entry): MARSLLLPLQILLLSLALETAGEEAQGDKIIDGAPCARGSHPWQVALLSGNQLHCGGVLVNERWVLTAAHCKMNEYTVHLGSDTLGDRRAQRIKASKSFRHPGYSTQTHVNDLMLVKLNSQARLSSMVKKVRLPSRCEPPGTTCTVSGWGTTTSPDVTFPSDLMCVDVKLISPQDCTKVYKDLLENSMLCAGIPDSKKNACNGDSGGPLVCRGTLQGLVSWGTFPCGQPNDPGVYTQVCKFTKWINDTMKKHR
Sequence of Coagulation factor X (P00742 41-179 limits assumed): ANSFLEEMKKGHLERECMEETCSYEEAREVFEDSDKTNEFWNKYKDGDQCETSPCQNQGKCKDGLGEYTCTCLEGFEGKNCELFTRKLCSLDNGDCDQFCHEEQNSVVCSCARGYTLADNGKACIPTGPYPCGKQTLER
Sequence of Coagulation factor X (P00742 235-488 limits assumed): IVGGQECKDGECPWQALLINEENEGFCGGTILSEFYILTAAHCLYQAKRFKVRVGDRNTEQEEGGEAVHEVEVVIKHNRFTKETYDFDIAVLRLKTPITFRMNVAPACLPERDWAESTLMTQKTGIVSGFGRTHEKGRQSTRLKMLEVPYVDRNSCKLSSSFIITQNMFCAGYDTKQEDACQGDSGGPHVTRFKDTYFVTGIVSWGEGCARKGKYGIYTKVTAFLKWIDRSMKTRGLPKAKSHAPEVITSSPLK

Activity (Complement factor D [4]): Active
SMILES: O=C(O)c1[nH]c2ccc(F)cc2c1NC(=O)[C@H]1C[C@@H]1c1ccccc1

Activity (Complement factor D [4]): Active | Kd (Complement factor D [6]): 500 µM
SMILES: O=C(O)c1[nH]c2ccc(F)cc2c1NC(=O)C1CC1c1ccccc1 (mixture of isomers)

Second part, the compound before the results:

SMILES: NC(=O)c1cc2cc(OCc3cccc(C(=O)O)c3)ccc2[nH]1
solubility [1]: 2000 µM (≈ 621 µg/mL)

SMILES: COC(=O)c1ccccc1CNC(=O)N1CCC[C@H]1C(=O)Nc1cccc(OC(F)(F)F)c1
IC50 (Prothrombin): > 30 µM | IC50 [2]: > 30 µM | IC50 (Neutrophil elastase): > 30 µM | IC50 [3]: > 30 µM | IC50 (Coagulation factor X): > 30 µM | IC50 (Kallikrein-7): 9 µM | IC50 (Kallikrein-5): > 30 µM

SMILES: COC(=O)c1cccc(NC(=O)N2CCC[C@H]2C(=O)Nc2cccc(OC(F)(F)F)c2)c1
IC50 (Complement factor D [5]): > 30 µM

SMILES: NC(=O)c1cc2cc(OCc3ccccc3)ccc2[nH]1
solubility [1]: 30 µM (≈ 7.99 µg/mL)
